Patent US20240417359A1, “PRECURSORS OF PHENOLIC FRAGRANT COMPOUNDS” (GIVAUDAN SA, priority 2021, published 2024)

Assay: Odour description on paper blotter
Details: 1% solution in EtOH on paper blotter, 24 h

Compound | Odour description
1-(dec-1-en-4-yloxy)-2-ethoxy-4-methylbenzene and 2-(dec-1-en-4-yloxy)-1-ethoxy-4-methylbenzene [Example 46] | medicinal, phenolic, vanilla
CCCCCC[C@@H](C/C=C\CCCCCCCC(=O)OC)Oc1cc(C)c(C(=O)OC)c(O)c1C [Example 3, methyl (S,Z)-2-hydroxy-4-((18-methoxy-18-oxooctadec-9-en-7-yl)oxy)-3,6-dimethylbenzoate] | powdery mossy, evernyl, green, fatty
CCCCCCC(CC=C(C)C)Oc1ccc(C=O)cc1OCC (stereo not shown) [Example 4, 3-ethoxy-4-((2-methylundec-2-en-5-yl)oxy)benzaldehyde] | vanilla (powdery, creamy) dry (dough)
C=CCC(Oc1ccc(CCC(C)=O)cc1)C(C)=CCC (stereo not shown) [Example 5, 4-(4-((5-methylocta-1,5-dien-4-yl)oxy)phenyl)butan-2-one] | fruity (powdery, sweet, raspberry)
C=CCC(Oc1ccc(C=CC)cc1OC)C(C)=CCC (stereo not shown) [Example 6, 2-methoxy-1-((5-methylocta-1,5-dien-4-yl)oxy)-4-(prop-1-en-1-yl)benzene] | woody (smokey, cedarwood, pyrogravure)
C=CCC(Oc1cc(C)c(C(=O)OC)c(O)c1C)C(C)=CCC (stereo not shown) [Example 7, methyl 2-hydroxy-3,6-dimethyl-4-((5-methylocta-1,5-dien-4-yl)oxy)benzoate] | powdery (evernyl)
C=CCC(Oc1ccc(CCC(C)=O)cc1)c1ccccc1 (stereo not shown) [Example 8, 4-(4-((1-phenylbut-3-en-1-yl)oxy)phenyl)butan-2-one] | fruity (powdery, sweet, raspberry)
CCCCCCC=CC=CCC(CCCCCC)Oc1ccc(CCC(C)=O)cc1 (stereo not shown) [Example 9, 4-(4-((octadeca-9,11-dien-7-yl)oxy)phenyl)butan-2-one] | powdery fruity raspberry
CCCCCCC(CC=CCC(CCCCCC)Oc1ccc(CCC(C)=O)cc1)Oc1ccc(CCC(C)=O)cc1 (stereo not shown) [Example 10, 4,4′-((octadec-9-ene-7,12-diylbis(oxy))bis(4,1-phenylene))bis(butan-2-one)] | powdery fruity raspberry
C=CCC(Oc1ccc(C=O)cc1OCC)C(C)=CCC (stereo not shown) [Example 11, 3-ethoxy-4-((5-methylocta-1,5-dien-4-yl)oxy)benzaldehyde] | powdery (vanilla)
C=CCC(C/C=C\CC)Oc1ccc(C=CC)cc1OC (stereo not shown) [Example 13, 2-methoxy-1-(((Z)-nona-1,6-dien-4-yl)oxy)-4-(prop-1-en-1-yl)benzene] | creamy, vanilla
C=C(C)[C@@H]1CC[C@@H](C)C[C@@H]1Oc1ccc(CCC(C)=O)cc1 [Example 14, 4-(4-(((1S,2S,5R)-5-methyl-2-(prop-1-en-2-yl)cyclohexyl)oxy)phenyl)butan-2-one] | sweet fruity (raspberry)
CCCCCC(CC=Cc1ccccc1)Oc1ccc(C=O)cc1OCC (stereo not shown) [Example 15, 3-ethoxy-4-((1-phenylnon-1-en-4-yl)oxy)benzaldehyde] | powdery (vanilla)
CCOc1cc(C=O)ccc1OC(C)(C)CC=C=C(C)C [Example 16, 4-((2,6-dimethylhepta-4,5-dien-2-yl)oxy)-3-ethoxybenzaldehyde] | powdery (vanilla)
CCOc1cc(C=O)ccc1OC(C)(C)CC=C=C(C)CCC=C(C)C [Example 18, 3-ethoxy-4-((2,6,10-trimethylundeca-4,5,9-trien-2-yl)oxy)benzaldehyde] | vanilla powdery
CC/C=C/CC(CCC)Oc1ccc(C=O)cc1OCC (stereo not shown) [Example 19, (E)-3-ethoxy-4-(non-6-en-4-yloxy)benzaldehyde] | vanilla powdery creamy
CCOc1cc(C=O)ccc1OCC/C=C(\C)CC/C=C(\C)CCC=C(C)C [Example 20, 3-ethoxy-4-(((3E,7E)-4,8,12-trimethyltrideca-3,7,11-trien-1-yl)oxy)benzaldehyde] | vanilla (powdery, creamy, chocolate, gourmand)
CC=CCC(C)(Cc1ccccc1)Oc1ccc(C=O)cc1OCC (stereo not shown) [Example 21, 3-ethoxy-4-((2-methyl-1-phenylhex-4-en-2-yl)oxy)benzaldehyde] | powdery (vanilla) creamy (milky)
C=CCC(CCCCCC)Oc1ccc(C=O)cc1OCC (stereo not shown) [Example 22, 4-(dec-1-en-4-yloxy)-3-ethoxybenzaldehyde] | dry powdery (cedarwood, vanilla)
C=CCC(CCCCCC)Oc1ccc(CCC(C)=O)cc1 (stereo not shown) [Example 23, 4-(4-(dec-1-en-4-yloxy)phenyl)butan-2-one] | fruity (raspberry, gourmand) sugary
C=CCC(CCCCCC)Oc1cc(C)c(C(=O)OC)c(O)c1C (stereo not shown) [Example 24, methyl 4-(dec-1-en-4-yloxy)-2-hydroxy-3,6-dimethylbenzoate] | powdery (mossy, evernyl)
C=CCC(CCCCCCCCCC)Oc1ccccc1C(=O)OC (stereo not shown) [Example 25, methyl 2-(tetradec-1-en-4-yloxy)benzoate] | aldehydic, metallic, green, citrus
C=CCC(CCCCCCCCCC)Oc1ccccc1C(=O)CC (stereo not shown) [Example 26, 1-(2-(tetradec-1-en-4-yloxy)phenyl)propan-1-one] | aldehydic, metallic, green, citrus

Compound | Odour description
C=CCC(CCCCCCCCCC)Oc1ccc(C=O)cc1OCC (stereo not shown) [Example 27, 3-ethoxy-4-(tetradec-1-en-4-yloxy)benzaldehyde] | powdery, vanilla, aldehydic, metallic, green, citrus, mandarin
CC/C=C\C/C=C\CCOc1ccc(CCC(C)=O)cc1 [Example 31, 4-(4-(((3Z,6Z)-nona-3,6-dien-1-yl)oxy)phenyl)butan-2-one] | green, leaf aldehyde, green apple, fruity
CC/C=C\C/C=C\CCOc1ccccc1OC [Example 32, 1-methoxy-2-(((3Z,6Z)-nona-3,6-dien-1-yl)oxy)benzene] | green, leaf aldehyde
CC/C=C\C/C=C\CCOc1ccc2ccccc2c1 [Example 33, 2-(((3Z,6Z)-nona-3,6-dien-1-yl)oxy)naphthalene] | weak, green, leaf aldehyde
CC/C=C\C/C=C\CCOc1ccc(C=O)cc1OC [Example 34, 3-methoxy-4-(((3Z,6Z)-nona-3,6-dien-1-yl)oxy)benzaldehyde] | green, leaf aldehyde, powdery, vanilla
C=CCC(CCCCCCCCC)Oc1ccc(C=O)cc1OC (stereo not shown) [Example 35, 3-methoxy-4-(tridec-1-en-4-yloxy)benzaldehyde] | powdery, vanilla, aldehydic, green, metallic, mandarin
C=CCC(CCCCCCCCC)Oc1ccc(COC)cc1OCC (stereo not shown) [Example 37, 2-ethoxy-4-(methoxymethyl)-1-(tridec-1-en-4-yloxy)benzene] | citrus, mandarin, green
CCC=CCC(CCCCCCCCC)Oc1ccc(CCC(C)=O)cc1 (stereo not shown) [Example 39, 4-(4-(pentadec-3-en-6-yloxy)phenyl)butan-2-one] | raspberry, mandarin, citrus, aldehydic, fresh
CCC=CCC(Oc1ccc(C=O)cc1OCC)C(=O)OCC (stereo not shown) [Example 40, ethyl 2-(2-ethoxy-4-formylphenoxy)hept-4-enoate] | powdery (vanilla)
CC/C=C\CC(C/C=C\CC)Oc1ccc(C=O)cc1OCC [Example 41, 3-ethoxy-4-(((3Z,8Z)-undeca-3,8-dien-6-yl)oxy)benzaldehyde] | vanilla, powdery
CC=CCC(CCCCCC)Oc1ccc(C=O)cc1OCC (stereo not shown) [Example 43, 3-ethoxy-4-(undec-2-en-5-yloxy)benzaldehyde] | powdery, creamy, vanilla
CCC=CCC(CCCCCC)Oc1ccc(C=O)cc1OCC (stereo not shown) [Example 44, 4-(dodec-3-en-6-yloxy)-3-ethoxybenzaldehyde] | woody, cedarwood, vanilla
CCCCCCC(C/C=C\CCCCCCCC(=O)OC)Oc1ccccc1OC (stereo not shown) [Example 45, methyl (Z)-12-(2-methoxyphenoxy)octadec-9-enoate] | phenolic, medicinal, guaiacol, vanilla absolute, peru balsam
CCOc1cc(C=O)ccc1OCC/C=C(\C)c1ccccc1 [Example 48, (E)-3-ethoxy-4-((4-phenylpent-3-en-1-yl)oxy)benzaldehyde] | sweet, powdery, vanilla, ice cream
CCOc1cc(C=O)ccc1OCCC=C(C)c1ccc(OC)cc1 [Example 49, 3-ethoxy-4-((4-(4-methoxyphenyl)pent-3-en-1-yl)oxy)benzaldehyde] | sweet, powdery, vanilla, ice cream, soft anisic, heliotropine, anethiol
CCOc1cc(C=O)ccc1OCCC=C(C)Cc1ccccc1 [Example 50, 3-ethoxy-4-((4-methyl-5-phenylpent-3-en-1-yl)oxy)benzaldehyde] | powdery, vanilla, ice cream
CCOc1cc(C=O)ccc1OCC/C=C(\C)c1ccc2ccccc2c1 [Example 51, (E)-3-ethoxy-4-((4-(naphthalen-2-yl)pent-3-en-1-yl)oxy)benzaldehyde] | powdery, vanilla, ice cream, floral, neroli, orange flower, baby cologne, madeleine, fougassette
COc1ccc(C(C)=CCCOc2ccc(CCC(C)=O)cc2)cc1 [Example 53, 4-(4-((4-(4-methoxyphenyl)pent-3-en-1-yl)oxy)phenyl)butan-2-one] | sweet powdery, anisic aldehyde, fruity, raspberry ketone
CCOc1cc(C=O)ccc1OCCC=C(C)CCc1ccc(OC)cc1 [Example 54, 3-ethoxy-4-((6-(4-methoxyphenyl)-4-methylhex-3-en-1-yl)oxy)benzaldehyde] | powdery, vanilla
COC(=O)c1ccccc1OCCC=C(C)CCc1ccccc1 [Example 56, methyl 2-((4-methyl-6-phenylhex-3-en-1-yl)oxy)benzoate] | wintergreen, salicylate, slightly powdery, vanilla
CCC(=O)c1ccccc1OCCC=C(C)CCc1ccccc1 [Example 57, 1-(2-((4-methyl-6-phenylhex-3-en-1-yl)oxy)phenyl)propan-1-one] | wintergreen, salicylate, slightly powdery, vanilla
CCOc1cc(C=O)ccc1OCCC=C(C)CCCc1ccccc1 [Example 58, 3-ethoxy-4-((4-methyl-7-phenylhept-3-en-1-yl)oxy)benzaldehyde] | powdery, vanilla, creamy, chocolate
CC(=O)CCc1ccc(OCCC=C(C)CCCc2ccccc2)cc1 [Example 59, 4-(4-((4-methyl-7-phenylhept-3-en-1-yl)oxy)phenyl)butan-2-one] | powdery fruity, raspberry
